Here are results for one compound from patent US20040044281A1, “Systems and methods for assessing blood flow in a target tissue” (priority 2002, published 2004).

This test deals with tumor blood flow. Put plainly: DCE-MRI tumor blood flow estimation pre- and post-treatment in patients of a phase I trial. More on the design: Change tgp / Change Gpeak / Change tgp10 / Change E: unit not given here. It counts as in vivo, human. The following applies: individual patients; for Post-treatment E (enhancement) / Post-treatment Gpeak (gradient peak) / Post-treatment tgp10 (time till gradient drops to 10% of Gpeak) / Post-treatment tgp (time to gradient peak): DCE-MRI 4-6 hrs after infusion, tumor ROI; for Change E / Change Gpeak / Change tgp / Change tgp10: post minus pre-treatment. On the procedure: The above equation (4) for Srel can be solved for the concentration variable C if the baseline set of MR image data set is set equal to Sbaseline, and the post MR sets of image data is set equal to the variable Spostcontrast. Concentration C can be calculated on a pixel by pixel or voxel by voxel basis and then averaged resulting in a data set of Concentration C as a function of time. A shown in Block 50 of FIG. 1, the mathematical derivative of Concentration C is determined, preferably by fitting a curve through the concentration data set and then taking the derivative of the curve equation to acquire a gradient curve. The gradient curve represents the rate of change of the tissue concentration of the contrast agent in the ROI. As shown in block 60 of FIG. 1, the maximum value of the rate of change of concentration per time (dC/dt) or Gpeak, is then determined. Thus, Gpeak, which is the magnitude of the first derivative of the concentration curve, can be employed as a flow analog that maintains a high correlation with flow with minimal sensitivity to variations in volume Ve. MRI acquisition techniques, coupled with image analysis techniques (e.g., intensity, rate of change of intensity), facilitate determining the efficacy of a treatment.
With A=40 mMol·sec (the area under curve without recirculation), B=0.5 mMol (the equilibrium concentration), and tp was the time to peak. […] In each case flow F was varied from 0.001 to 0.03 ml/sec/g. Five parameters were calculated from each curve as shown for example purposes in FIG. 5. Magnitude of the first derivative peak (Gpeak), time from bolus arrival to first derivative peak (tgp,) time for gradient to drop to 10% of peak value (tgp10,), the concentration at tgp10 (denoted CE), and initial area under the CT curve from bolus arrival to 60 sec afterwards (IAUC) (Evelhoch, 1999.
DCE-MRI. Six patients were studied using a 1.5T scanner (Siemens Magnetom Vision). Perfusion studies were obtained with a single-slice Fast Low Angle Shot (FLASH) sequence (TR=10, TE=4, FA=30°, slice thickness=10 mm, matrix=128×256, FOV=16×25 cm-35×35 cm) repeated 128 times, once every 2.6 seconds. The first 10 images were obtained without contrast enhancement, after which an approximately 10 second bolus of Gadolinium-DTPA contrast agent (Magnevist, Berlex Laboratories) was administered intravenously. […] DCE-MRI was performed twice on each patient; once to obtain a pre-treatment baseline, and once 4-6 hrs after infusion of combretestatin. The slice position and orientation between days within each patient was carefully matched to obtain data from the same region of interest (ROI) in the tumor. Image processing was performed off-line using a custom software package that permitted a trained rater to view all 128 images in a study and to interactively identify the tumor ROI.

“And” between values parts separate entries of the source, which are not always exact repeats. Identical values can stand only once.

Turning to `COc1ccc(/C=C\c2cc(OC)c(OC)c(OC)c2)cc1OP(=O)(O)O` [CA4P, disodium combretastatin-A-4-3-O-phosphate], under “60 mg/m^2 (10 min)”, the “Post-treatment E (enhancement)” value was 2.01 and 1.87; the “Post-treatment Gpeak (gradient peak)” value was 6.18 and 5.71; the “Post-treatment tgp10 (time till gradient drops to 10% of Gpeak)” value is 25.30 and 34.50; the “Post-treatment tgp (time to gradient peak)” value is 11.50 and 6.90. Besides, for the setting “60 mg/m^2 (10 min)”, the “Change E” value is −0.41 and 0.05; the “Change Gpeak” value is −1.12 and 0.92; the Change tgp is 0.00; the “Change tgp10” value was −13.80 and −4.60. Also, under “60 mg/m^2 (1 hr)”, the “Post-treatment E (enhancement)” value was 1.72 and 1.76 and 1.80 and 1.28 and 1.30; the “Post-treatment Gpeak (gradient peak)” value was 4.93 and 3.57 and 3.47 and 2.19 and 1.48; the “Post-treatment tgp10 (time till gradient drops to 10% of Gpeak)” value was 36.60 and 44.50 (2×) and 20.90 and 52.60; the “Post-treatment tgp (time to gradient peak)” value was 7.86 (2×) and 15.70 and 13.10 and 11.70. Where the note is “60 mg/m^2 (1 hr)”, the “Change E” value was −0.27 and −0.06 and −0.13 and −0.22 and −0.20; the “Change Gpeak” value is −3.76 and −1.05 and −1.53 and −1.44 and −1.75; the Change tgp is 0.00 and 2.60 and 5.24 and 2.62 and −4.00; the “Change tgp10” value is 18.30 and 5.20 and 10.50 and −15.70 and 21.20.
